{"source": "patent US11510964B2", "about": "“Macrocyclic peptides to decrease c-Myc protein levels and reduce cancer cell growth” (University of Kansas, priority 2017, dated 2022)", "key": {"Erk in PC-3 cells": {"tested_on": "Erk in PC-3 cells", "experiment": "Western blot of p-Erk/total Erk protein levels", "format": "cell-based, human", "description": "Cells were seeded in 6 well plates at a density of 1×10^5 cells/well and grown to 75% confluence. Cells were treated with [D-Trp]CJ-15,208 at the indicated concentrations. Cells were then harvested as described above, and the cell pellets lysed in RIPA buffer consisting of 10 mM Tris HCl, pH 8.0, 150 mM NaCl, 1 mM EDTA, 1% Triton-X-100, 0.1% SDS, 1% sodium deoxycholate, and a protease inhibitor cocktail #P8340 (Sigma). Cell lysates were centrifuged at 13×1000 rpm for 15 min and the supernatants collected. The total protein concentration was measured in cell lysates using the standard Bradford assay. SDS gel electrophoresis was performed using 4-20% polyacrylamide gel (BioRad). […] Signal densities of the protein bands were determined using ImageJ software (NIH) and normalized to the internal loading control (actin).\nEach experiment was performed in triplicate unless otherwise stated in the figure legend. […] The effects of compound vs. vehicle treatment on protein levels (FIG. 10) were evaluated by one-way ANOVA with Dunnett's test for multiple comparisons."}, "[1]": {"conditions": "mice, after systemic administration; cited from earlier work"}, "[2]": {"tested_on": "PC-3 cells xenograft tumors", "experiment": "Mouse xenograft model, tumor growth inhibition", "format": "in vivo", "conditions": "PC-3 xenograft in nude mice, 30 mg/kg intraperitoneally three times per week", "description": "An in-vivo study was performed to determine tumor growth inhibition by [D-Trp]CJ-15,208 in a mouse xenograft model. PC-3 cells were injected subcutaneously in both rear flanks of nude mice. Once tumors were established, mice were treated intraperitoneally three times per week with either vehicle (50% DMSO, 45% PEG 400, and 5% polyoxyethylene (20) sorbitan monooleate (Tween 80); 3 mice, 6 tumors) or [D-Trp]CJ-15,208 (30 mg/kg in vehicle; 2 mice, 3 tumors). Tumor volume was measured using calipers."}, "DU145 cells": {"tested_on": "DU145 cells", "format": "cell-based, human", "conditions": "read-out: IC50, cell growth", "description": "(§1) Human prostate cancer PC-3 cells were cultured and maintained in EMEM (ATCC), non-prostate HEK (human embryonic kidney) cells were cultured in DMEM, human prostate cancer DU145, LNCaP, 22Rv1 cells were cultured in RPMI 1640 (ATCC), and normal BPH-1 prostate cells and prostate cancer C4-2 cell line were cultured in RPMI 1640 (ATCC), all containing 10% fetal bovine serum (Atlanta Biologicals) and 1% penicillin/streptomycin (Invitrogen). Cells were grown at 37° C. in humidified air with 5% CO2 and passaged every fourth to fifth day following trypsinization with trypsin/EDTA (Invitrogen).^16\n(§2) PC-3, LNCaP, DU 145, 22Rv1, C4-2, BPH-1, and HEK cells were grown to a density of 2000 cells/well in 96 well plates and treated with [D-Trp]CJ-15,208 or other peptides for 24-72 h in duplicate. Media containing [D-Trp]CJ-15,208 was changed every 24 h. The proliferation of treated cells was determined using the cell proliferation reagent WST-1 (Roche) per the manufacturer's instructions and compared to […] control cells in 1% DMSO in media. After treatment with compound 10 μL of the reagent was added to the well in 100 μL culture media, and the cells incubated at 37° C. for 30 min. The absorbance of the media in each well was measured at […] using a plate reader (BioTek). The percentage cell proliferation was normalized to vehicle treated control cells calculated as: (mean absorbance of sample/mean absorbance of control cells)×100.^38\n(§3) Each experiment was performed in triplicate unless otherwise stated in the figure legend. GraphPad Prism 5 was used to determine IC50 values. Data represent the mean value+/−SEM. Compound vs. vehicle treated cells in the cell cycle phase and apoptosis experiments (FIGS. 5-8) were compared using the student's t-test, with a two-tailed, unpaired method, using the Prism software. The effects of compound vs. vehicle treatment on protein levels (FIG. 10) were evaluated by one-way ANOVA with Dunnett's test for multiple comparisons."}, "PC-3 cells": {"tested_on": "PC-3 cells", "format": "cell-based, human", "conditions": "read-out: IC50, cell growth", "description": "as §1, §2, §3"}, "LNCaP cells": {"tested_on": "LNCaP cells", "format": "cell-based, human", "conditions": "read-out: IC50, cell growth", "description": "as §1, §2, §3"}, "22Rv1 cells": {"tested_on": "22Rv1 cells", "format": "cell-based, human", "conditions": "read-out: IC50, cell growth", "description": "as §1, §2, §3"}, "BPH-1 cells": {"tested_on": "BPH-1 cells", "experiment": "Cell proliferation assay (WST-1)", "format": "cell-based", "description": "as §1, §2, §3"}, "C4-2 cells": {"tested_on": "C4-2 cells", "experiment": "Cell proliferation assay (WST-1)", "format": "cell-based", "description": "as §1, §2, §3"}}, "note": "Entries after “also recorded” stand apart in the source; their conditions may differ. Like-named read-outs stand apart in the source and are kept apart here. Non-standard residues stand in square brackets, D forms with d. Residues, ends and D or L forms follow the SMILES beside them."}
{"smiles": "O=C1N[C@H](Cc2c[nH]c3ccccc23)C(=O)N[C@@H](Cc2ccccc2)C(=O)N2CCC[C@@H]2C(=O)N[C@H]1Cc1ccccc1", "note": "[[D-Trp]CJ-15,208, cyclo[Phe-D-Pro-Phe-D-Trp]] (cyclo(F[dP]F[dW]))", "values": [{"measurement": "total Erk protein levels", "setting": "Erk in PC-3 cells; PC-3, 48 h", "result": "did not decrease significantly"}, {"measurement": "cellular levels of p-Erk", "setting": "Erk in PC-3 cells; PC-3, increasing concentrations, 48 h", "result": "did not change significantly"}, {"measurement": "blood-brain barrier penetration", "setting": "[1]", "result": "appear to penetrate the blood-brain barrier"}, {"measurement": "tumor growth compared to vehicle", "setting": "[2]", "result": "decrease in tumor growth"}, {"measurement": "IC50", "setting": "DU145 cells; 48 h", "result": "1.2 ± 0.2", "unit": "µM"}, {"measurement": "IC50", "setting": "DU145 cells; 72 h", "result": "0.7 ± 0.1", "unit": "µM"}, {"measurement": "IC50", "setting": "PC-3 cells; 48 h", "result": "16.5 ± 0.7", "unit": "µM"}, {"measurement": "IC50", "setting": "PC-3 cells; 72 h", "result": "2 ± 1", "unit": "µM"}, {"measurement": "IC50", "setting": "LNCaP cells; 48 h", "result": "> 50", "unit": "µM"}, {"measurement": "IC50", "setting": "LNCaP cells; 72 h", "result": "3 ± 1", "unit": "µM"}, {"measurement": "IC50", "setting": "22Rv1 cells; 48 h", "result": "8.8 ± 4", "unit": "µM"}, {"measurement": "IC50", "setting": "22Rv1 cells; 72 h", "result": "4 ± 0.8", "unit": "µM"}, {"measurement": "IC50, cell growth", "setting": "BPH-1 cells; 48 h", "result": "No effect"}, {"measurement": "IC50, cell growth", "setting": "BPH-1 cells; 72 h", "result": "No effect"}, {"measurement": "effect on cell proliferation / cytotoxicity", "setting": "BPH-1 cells; time not stated", "result": "No cytotoxicity was observed; also recorded: did not prevent cell proliferation"}, {"measurement": "IC50, cell growth", "setting": "C4-2 cells; 48 h", "result": "No effect"}, {"measurement": "IC50, cell growth", "setting": "C4-2 cells; 72 h", "result": "No effect"}, {"measurement": "effect on cell proliferation", "setting": "C4-2 cells; time not stated", "result": "no effect; also recorded: did not prevent cell proliferation"}]}
